Assays:
[1] = molecular target: T1, glucosylceramide synthase (GCS) (Canis lupus familiaris, UniProt A0A8I3MXG6); assay: GCS activity, broken cell (MDCK cell homogenate) assay; assay type: biochemical, canine
T1 construct: Madin-Darby canine kidney (MDCK) cell homogenates (120 μg of protein) were incubated; endogenous in cells; host or cells: MDCK (Madin-Darby canine kidney) cell homogenate
T1 sequence (A0A8I3MXG6 1-394): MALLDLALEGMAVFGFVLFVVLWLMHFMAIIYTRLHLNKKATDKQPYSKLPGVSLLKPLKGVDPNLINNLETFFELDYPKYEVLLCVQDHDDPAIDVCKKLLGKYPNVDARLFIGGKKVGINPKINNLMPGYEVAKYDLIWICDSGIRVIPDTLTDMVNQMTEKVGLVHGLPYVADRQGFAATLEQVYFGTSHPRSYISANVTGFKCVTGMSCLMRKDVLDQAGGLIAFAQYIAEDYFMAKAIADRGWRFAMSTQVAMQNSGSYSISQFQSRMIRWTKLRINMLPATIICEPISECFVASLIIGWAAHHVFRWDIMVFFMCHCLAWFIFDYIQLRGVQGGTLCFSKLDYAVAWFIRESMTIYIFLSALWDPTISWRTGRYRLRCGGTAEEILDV
Procedure: Enzyme activity was measured as described previously (9). Madin-Darby canine kidney (MDCK) cell homogenates (120 μg of protein) were incubated with uridine diphosphate-[^3H]glucose (100,000 cpm) and liposomes consisting of 85 μg of octanoylsphingosine, 570 μg of dioleoylphosphatidylcholine, and 100 μg of sodium sulfatide in a 200 μL reaction mixture and kept for 1 h at 37° C.

[2] = system: WT-MDCKII cells; assay: GCS inhibition (GlcCer production) in whole wild-type MDCKII cells; assay type: cell-based, canine; conditions: Canis lupus familiaris, MDCK-II; inhibition of GlcCer production in whole wild-type MDCKII cells, 24 h; read-out: WT-MDCK IC50
Procedure: Parental (WT-)MDCKII cells and MDCKII cells retrovirally transduced with human MDR-1 cDNA were obtained from the Netherlands Cancer Institute. Both cell lines were routinely maintained in medium consisting of Opti-MEM/F 12 (1:1), 5% FBS, 100 U/mL of penicillin, 100 μg/mL streptomycin and […] L-glutamine. MDCKII cells were newly thawed from frozen ampules every two months. Protein levels of MDR1 in MDR1-MDCKII cells were measured monthly, and MDR1-MDCKII cell passages were immediately terminated when a reduction of MDR1 levels was observed by Western blot using anti-human MDR1 monoclonal antibody (Abcam C219).
(§1) Stock solutions of water-insoluble glycosphingolipid inhibitors (100 mM) were prepared by dissolving each inhibitor into 100% ethanol as previously described (3). The inhibitor-ethanol solutions then were diluted 50× into 2 mM delipidated bovine serum albumin-phosphate buffered saline solution to make water-soluble glycosphingolipid inhibitor-bovine serum albumin complexes. The inhibitor-bovine serum album complexes were sterile-filtered and stored at −20° C. Prior to use, portions of the inhibitor-bovine serum albumin complexes were further diluted with Opti-F12 to make treatment solutions. Equal amounts of bovine serum albumin and ethanol were added into the control cultures. WT and MDR1-MDCKII cells (5×10^5) were seeded into 10-cm culture dishes containing 10 ml of Opti-F12 with 5% FBS. After 24 hours, the medium was replaced with fresh serum-free Opti-F12 medium, and cells were exposed to candidate GCS inhibitors at concentrations of 0, 1, 3, 10, 30, 100 and 300 nM for 24 hours.
(§2) Following inhibitor treatment, whole cellular lipids of wild type and MDR1-MDCKII cells were extracted as previously described in detail (10). Briefly, cells were washed with ice-cold phosphate buffered saline, fixed by methanol, and collected with rubber scraper. Chloroform was then added to yield a theoretical ratio of chloroform:methanol:water at 1:2:0.8 (v/v/v) to form a mono-phase. Cell debris and proteins were removed by centrifugation at 2200×g for 30 min. The supernatants were portioned by adding chloroform and 0.9% NaCl. The lower organic phases containing neutral glycosphingolipids lipids were washed with methanol and 0.9% NaCl, and subjected to base- and acid-hydrolysis (10). A portion of purified glycosphingolipids normalized to 100 nmol of total phospholipids was analyzed by high performance thin layer chromatography. The thin layer chromatography separations were processed twice. The plate pretreated with 1% sodium borate was first developed in a solvent system consisting of chloroform/methanol (98/2, v/v). After air drying, the plate was then developed in a solvent system containing chloroform/methanol/water (70/30/4, v/v/v). The levels of glucosylceramide were detected by charring with 8% cupric sulfate in 8% phosphoric acid, and quantified by densitometric scanning using ImageJ, NIH Image. Image data was analyzed, and the IC50 of each inhibitor was calculated using GraphPad Prism (version 5.03).

[3] = system: MDR1-MDCKII cells; assay: GCS inhibition (GlcCer production) in MDCKII cells stably expressing human MDR1; assay type: cell-based, canine; conditions: for IC50: Canis lupus familiaris, inhibition of GlcCer production in MDCKII cells stably expressing human MDR1, 24 h, read-out: MDR-MDCK IC50; for MDR/WT: ratio of MDR1-MDCKII IC50 divided by WT-MDCKII IC50
Procedure: Parental (WT-)MDCKII cells and MDCKII cells retrovirally transduced with human MDR-1 cDNA were obtained from the Netherlands Cancer Institute. Both cell lines were routinely maintained in medium consisting of Opti-MEM/F 12 (1:1), 5% FBS, 100 U/mL of penicillin, 100 μg/mL streptomycin and […] L-glutamine. MDCKII cells were newly thawed from frozen ampules every two months.
as §1, with “After 24 hours, the medium was replaced with fresh serum-free Opti-F12 medium, and cells were exposed to candidate GCS inhibitors at concentrations of 0, 1, 3, 10, 30, 100 and 300 nM for 24 hours.” left out
as §2, with “Image.” for “Image. Image data was analyzed, and the IC50 of each inhibitor was calculated using GraphPad Prism (version 5.03).”

[4] = cited from earlier work
[5] = molecular target: T2, MDR1 (Homo sapiens, UniProt P08183); assay: [3H]Vinblastine transport in MDR1-MDCKII cells; assay type: cell-based; conditions: 1-100 μM, 2 h, relative to vehicle
T2 construct: host or cells: MDCKII (canine kidney) cells retrovirally transduced with human MDR-1 cDNA
T2 sequence (P08183 whole entry): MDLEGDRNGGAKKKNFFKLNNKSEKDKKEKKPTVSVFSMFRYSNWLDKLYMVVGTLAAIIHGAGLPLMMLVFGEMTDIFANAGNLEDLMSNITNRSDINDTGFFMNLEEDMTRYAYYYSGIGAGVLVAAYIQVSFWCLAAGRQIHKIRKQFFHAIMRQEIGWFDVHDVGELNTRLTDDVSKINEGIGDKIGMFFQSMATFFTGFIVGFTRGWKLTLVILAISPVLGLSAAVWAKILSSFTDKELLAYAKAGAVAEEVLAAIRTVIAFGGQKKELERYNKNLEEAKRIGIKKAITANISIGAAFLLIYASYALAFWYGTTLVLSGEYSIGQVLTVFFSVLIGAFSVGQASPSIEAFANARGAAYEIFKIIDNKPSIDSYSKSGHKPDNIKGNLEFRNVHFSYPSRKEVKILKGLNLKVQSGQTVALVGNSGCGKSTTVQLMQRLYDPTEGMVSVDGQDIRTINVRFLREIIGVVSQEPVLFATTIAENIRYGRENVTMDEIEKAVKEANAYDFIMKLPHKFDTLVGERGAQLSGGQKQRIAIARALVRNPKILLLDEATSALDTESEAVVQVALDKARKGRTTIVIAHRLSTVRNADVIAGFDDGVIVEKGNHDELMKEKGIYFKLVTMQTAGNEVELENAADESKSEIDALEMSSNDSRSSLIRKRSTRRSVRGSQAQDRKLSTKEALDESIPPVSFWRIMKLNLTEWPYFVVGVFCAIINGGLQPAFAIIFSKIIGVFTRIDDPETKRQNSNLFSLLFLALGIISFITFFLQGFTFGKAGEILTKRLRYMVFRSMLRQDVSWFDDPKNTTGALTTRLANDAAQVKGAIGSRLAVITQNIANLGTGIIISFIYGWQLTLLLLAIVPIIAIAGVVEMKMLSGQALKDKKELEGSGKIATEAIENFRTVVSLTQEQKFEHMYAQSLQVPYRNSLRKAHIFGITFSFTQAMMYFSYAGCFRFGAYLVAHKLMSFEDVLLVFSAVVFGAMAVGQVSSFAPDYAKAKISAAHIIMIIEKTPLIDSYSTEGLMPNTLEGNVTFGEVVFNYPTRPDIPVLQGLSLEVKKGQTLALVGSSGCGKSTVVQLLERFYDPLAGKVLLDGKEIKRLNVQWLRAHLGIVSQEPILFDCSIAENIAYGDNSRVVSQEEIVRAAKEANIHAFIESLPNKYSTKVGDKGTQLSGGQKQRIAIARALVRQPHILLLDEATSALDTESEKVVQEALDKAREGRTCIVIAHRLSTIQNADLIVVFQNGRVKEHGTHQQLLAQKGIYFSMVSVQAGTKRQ
Procedure: MDR1- and WT-MDCKII cells were grown to confluence on Transwell filters (12 well plates) in DMEM+10% FBS. […] Uptake was measured over 2 hours at 37° C. At that time, uptake was stopped by washing each side of the membrane 3× with ice-cold PBS. Vinblastine uptake into the cells, after correction for any remaining adherent extracellular contamination, was calculated as described previously (11). To investigate the effect of experimental drugs on MDR-mediated transport, those compounds were added to the apical chamber (1-100 μM) during vinblastine uptake and the uptake results expressed as a % of that with vehicle alone.

Structure (SMILES)	IC50 [1]	IC50 [2]	IC50 [3]	MDR/WT [3]	effect on mouse body weight [4]	[3H]vinblastine uptake into MDR1-MDCKII cells [5]	activity in the MDR1-MDCKII line ([3]; in words)
O=C(CCc1ccccc1)N[C@H](CN1CCCC1)[C@H](O)c1ccc2c(c1)OCCO2 [Compound 3c]	134 nM	23.5 nM	86.7 nM	3.7	–	–	–
O=C(/C=C/c1ccccc1)N[C@H](CN1CCCC1)[C@H](O)c1ccc2c(c1)OCCO2 [Compound 3f, N-((1R,2R)-1-(2,3-dihydrobenzo[b][1,4]dioxin-6-yl)-1-hydroxy-3-(pyrrolidin-1-yl)propan-2-yl)cinnamamide]	379 nM	80.7 nM	389 nM	4.8	–	–	–
O=C(N[C@H](CN1CCCC1)[C@H](O)c1ccc2c(c1)OCCO2)OCc1ccccc1 [Compound 3b]	144 nM	7.3 nM	47.1 nM	6.5	–	–	–
O=C(N[C@H](CN1CCCC1)[C@H](O)c1ccc2c(c1)OCCO2)C1CC1c1ccccc1 (stereo partly drawn) [Compound 3g, N-((1R,2R)-1-(2,3-dihydrobenzo[b][1,4]dioxin-6-yl)-1-hydroxy-3-(pyrrolidin-1-yl)propan-2-yl)-2-phenylcyclopropanecarboxamide]	90 nM	27.3 nM	78.1 nM	2.9	–	–	–
CN(C(=O)CCc1ccccc1)[C@H](CN1CCCC1)[C@H](O)c1ccc2c(c1)OCCO2 [Compound 3j, N-((1R,2R)-1-(2,3-dihydrobenzo[b][1,4]dioxin-6-yl)-1-hydroxy-3-(pyrrolidin-1-yl)propan-2-yl)-N-methyl-3-phenylpropanamide]	158 nM	59.4 nM	1250 nM	21	–	–	–
CCCCN1C[C@H](O)[C@@H](O)[C@H](O)[C@H]1CO [NB-DNJ, N-butyldeoxynojirimycin]	–	–	–	–	reduce mouse body weight	–	–
O=C(Cc1ccccc1)N[C@H](CN1CCCC1)[C@H](O)c1ccc2c(c1)OCCO2 [Compound 3d, N-((1R,2R)-1-(2,3-dihydrobenzo[b][1,4]dioxin-6-yl)-1-hydroxy-3-(pyrrolidin-1-yl)propan-2-yl)-2-phenylacetamido]	> 2000 nM	–	–	–	–	–	–
O=C(CCCc1ccccc1)N[C@H](CN1CCCC1)[C@H](O)c1ccc2c(c1)OCCO2 [Compound 3e]	80 nM	254 nM	1440 nM	5.7	–	–	–
O=C(N[C@H](CN1CCCC1)[C@H](O)c1ccc2c(c1)OCCO2)C1Cc2ccccc2C1 [Compound 3i, N-((1R,2R)-1-(2,3-dihydrobenzo[b][1,4]dioxin-6-yl)-1-hydroxy-3-(pyrrolidin-1-yl)propan-2-yl)-2,3-dihydro-1H-indene-2-carboxamide]	107 nM	151 nM	3210 nM	21	–	dose dependent increase	loss of activity
